{"source": "PubChem BioAssay (NCI)", "test_in_all_cases": "NCI anticancer screen, dose series, 48 h", "key": {"COLO 205 colon": {"system": "COLO 205 colon"}, "HS 578T breast": {"system": "HS 578T breast"}, "SF-295 CNS": {"system": "SF-295 CNS"}, "UO-31 renal": {"system": "UO-31 renal"}, "CCRF-CEM leukemia": {"system": "CCRF-CEM leukemia"}, "HOP-92 NSCLC": {"system": "HOP-92 NSCLC"}, "SK-MEL-2 melanoma": {"system": "SK-MEL-2 melanoma"}, "MCF7 breast": {"system": "MCF7 breast"}, "SK-MEL-5 melanoma": {"system": "SK-MEL-5 melanoma"}, "ACHN renal": {"system": "ACHN renal"}, "OVCAR-5 ovarian": {"system": "OVCAR-5 ovarian"}, "PC-3 prostate": {"system": "PC-3 prostate"}, "OVCAR-4 ovarian": {"system": "OVCAR-4 ovarian"}, "K-562 leukemia": {"system": "K-562 leukemia"}, "SNB-19 CNS": {"system": "SNB-19 CNS"}, "MDA-N": {"system": "MDA-N"}, "MALME-3M melanoma": {"system": "MALME-3M melanoma"}, "UACC-257 melanoma": {"system": "UACC-257 melanoma"}, "CAKI-1 renal": {"system": "CAKI-1 renal"}}, "note": "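How tested: cells in 96-well plates exposed to compound for 48 hours at five concentrations. At the TGI there is no net growth.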", "data": [{"smiles": "CC1=NN(C(=O)CC(=O)Nc2ccccc2C)C(=O)C1N=Nc1ccc(S(=O)(=O)c2ccc(N=NC3C(=O)N(C(=O)CC(=O)Nc4ccccc4C)N=C3C)cc2)cc1", "note": "(stereo not given)", "values": [{"measurement": "TGI", "setting": "COLO 205 colon", "result": "> 100", "unit": "µM"}, {"measurement": "TGI", "setting": "HS 578T breast", "result": "> 100", "unit": "µM"}, {"measurement": "TGI", "setting": "SF-295 CNS", "result": "> 100", "unit": "µM"}, {"measurement": "TGI", "setting": "UO-31 renal", "result": "> 100", "unit": "µM"}, {"measurement": "TGI", "setting": "CCRF-CEM leukemia", "result": "> 100", "unit": "µM"}, {"measurement": "TGI", "setting": "HOP-92 NSCLC", "result": "> 100", "unit": "µM"}, {"measurement": "TGI", "setting": "SK-MEL-2 melanoma", "result": "> 100", "unit": "µM"}, {"measurement": "TGI", "setting": "MCF7 breast", "result": "> 100", "unit": "µM"}, {"measurement": "TGI", "setting": "SK-MEL-5 melanoma", "result": "> 100", "unit": "µM"}, {"measurement": "TGI", "setting": "ACHN renal", "result": "> 100", "unit": "µM"}, {"measurement": "TGI", "setting": "OVCAR-5 ovarian", "result": "> 100", "unit": "µM"}, {"measurement": "TGI", "setting": "PC-3 prostate", "result": "> 100", "unit": "µM"}, {"measurement": "TGI", "setting": "OVCAR-4 ovarian", "result": "> 100", "unit": "µM"}, {"measurement": "TGI", "setting": "K-562 leukemia", "result": "> 100", "unit": "µM"}, {"measurement": "TGI", "setting": "SNB-19 CNS", "result": "> 100", "unit": "µM"}, {"measurement": "TGI", "setting": "MDA-N", "result": "> 100", "unit": "µM"}, {"measurement": "TGI", "setting": "MALME-3M melanoma", "result": "> 100", "unit": "µM"}, {"measurement": "TGI", "setting": "UACC-257 melanoma", "result": "> 100", "unit": "µM"}, {"measurement": "TGI", "setting": "CAKI-1 renal", "result": "> 100", "unit": "µM"}]}, {"smiles": "COc1ccc(/C=C/C(=O)c2nc3ccccc3[nH]2)cc1", "values": [{"measurement": "TGI", "setting": "COLO 205 colon", "result": 26, "unit": "µM"}, {"measurement": "TGI", "setting": "HS 578T breast", "result": "> 77.2", "unit": "µM"}, {"measurement": "TGI", "setting": "SF-295 CNS", "result": "> 84.8", "unit": "µM"}, {"measurement": "TGI", "setting": "UO-31 renal", "result": 34.6, "unit": "µM"}, {"measurement": "TGI", "setting": "CCRF-CEM leukemia", "result": "> 100", "unit": "µM"}, {"measurement": "TGI", "setting": "HOP-92 NSCLC", "result": 35.6, "unit": "µM"}, {"measurement": "TGI", "setting": "SK-MEL-2 melanoma", "result": "> 100", "unit": "µM"}, {"measurement": "TGI", "setting": "MCF7 breast", "result": "> 81", "unit": "µM"}, {"measurement": "TGI", "setting": "SK-MEL-5 melanoma", "result": 31.8, "unit": "µM"}, {"measurement": "TGI", "setting": "ACHN renal", "result": 34.5, "unit": "µM"}, {"measurement": "TGI", "setting": "OVCAR-5 ovarian", "result": "> 71.7", "unit": "µM"}, {"measurement": "TGI", "setting": "PC-3 prostate", "result": 87.6, "unit": "µM"}, {"measurement": "TGI", "setting": "OVCAR-4 ovarian", "result": 60.1, "unit": "µM"}, {"measurement": "TGI", "setting": "K-562 leukemia", "result": "> 100", "unit": "µM"}, {"measurement": "TGI", "setting": "SNB-19 CNS", "result": 77.3, "unit": "µM"}, {"measurement": "TGI", "setting": "MDA-N", "result": 32.9, "unit": "µM"}, {"measurement": "TGI", "setting": "MALME-3M melanoma", "result": 61.7, "unit": "µM"}, {"measurement": "TGI", "setting": "UACC-257 melanoma", "result": 52, "unit": "µM"}, {"measurement": "TGI", "setting": "CAKI-1 renal", "result": "> 100", "unit": "µM"}]}, {"smiles": "CC1(C)CC(=O)C(CC(C(=O)C(=O)Nc2cc(C(F)(F)F)ccc2Cl)C(=O)c2ccco2)C(=O)C1", "note": "(stereo not given)", "values": [{"measurement": "TGI", "setting": "COLO 205 colon", "result": "> 100", "unit": "µM"}, {"measurement": "TGI", "setting": "HS 578T breast", "result": "> 100", "unit": "µM"}, {"measurement": "TGI", "setting": "SF-295 CNS", "result": "> 100", "unit": "µM"}, {"measurement": "TGI", "setting": "UO-31 renal", "result": "> 100", "unit": "µM"}, {"measurement": "TGI", "setting": "CCRF-CEM leukemia", "result": "> 100", "unit": "µM"}, {"measurement": "TGI", "setting": "HOP-92 NSCLC", "result": "> 100", "unit": "µM"}, {"measurement": "TGI", "setting": "SK-MEL-2 melanoma", "result": "> 100", "unit": "µM"}, {"measurement": "TGI", "setting": "MCF7 breast", "result": "> 100", "unit": "µM"}, {"measurement": "TGI", "setting": "SK-MEL-5 melanoma", "result": "> 100", "unit": "µM"}, {"measurement": "TGI", "setting": "ACHN renal", "result": "> 100", "unit": "µM"}, {"measurement": "TGI", "setting": "OVCAR-5 ovarian", "result": "> 100", "unit": "µM"}, {"measurement": "TGI", "setting": "PC-3 prostate", "result": "> 100", "unit": "µM"}, {"measurement": "TGI", "setting": "OVCAR-4 ovarian", "result": "> 100", "unit": "µM"}, {"measurement": "TGI", "setting": "K-562 leukemia", "result": "> 100", "unit": "µM"}, {"measurement": "TGI", "setting": "SNB-19 CNS", "result": "> 100", "unit": "µM"}, {"measurement": "TGI", "setting": "MDA-N", "result": "> 100", "unit": "µM"}, {"measurement": "TGI", "setting": "MALME-3M melanoma", "result": "> 100", "unit": "µM"}, {"measurement": "TGI", "setting": "UACC-257 melanoma", "result": "> 100", "unit": "µM"}, {"measurement": "TGI", "setting": "CAKI-1 renal", "result": "> 100", "unit": "µM"}]}, {"smiles": "OCCOCCN1CCN(c2nc(N3CCCC3)c3nc(Cl)c(NCc4ccccc4)nc3n2)CC1", "values": [{"measurement": "TGI", "setting": "COLO 205 colon", "result": 21.7, "unit": "µM"}, {"measurement": "TGI", "setting": "HS 578T breast", "result": 43.5, "unit": "µM"}, {"measurement": "TGI", "setting": "SF-295 CNS", "result": 29.3, "unit": "µM"}, {"measurement": "TGI", "setting": "UO-31 renal", "result": 21.7, "unit": "µM"}, {"measurement": "TGI", "setting": "CCRF-CEM leukemia", "result": 32.9, "unit": "µM"}, {"measurement": "TGI", "setting": "HOP-92 NSCLC", "result": 26.2, "unit": "µM"}, {"measurement": "TGI", "setting": "SK-MEL-2 melanoma", "result": 32, "unit": "µM"}, {"measurement": "TGI", "setting": "MCF7 breast", "result": 29.5, "unit": "µM"}, {"measurement": "TGI", "setting": "SK-MEL-5 melanoma", "result": 17.9, "unit": "µM"}, {"measurement": "TGI", "setting": "ACHN renal", "result": 27.2, "unit": "µM"}, {"measurement": "TGI", "setting": "OVCAR-5 ovarian", "result": 28.9, "unit": "µM"}, {"measurement": "TGI", "setting": "PC-3 prostate", "result": 27.1, "unit": "µM"}, {"measurement": "TGI", "setting": "OVCAR-4 ovarian", "result": 30.8, "unit": "µM"}, {"measurement": "TGI", "setting": "K-562 leukemia", "result": 16.4, "unit": "µM"}, {"measurement": "TGI", "setting": "SNB-19 CNS", "result": 29.8, "unit": "µM"}, {"measurement": "TGI", "setting": "MDA-N", "result": 22.7, "unit": "µM"}, {"measurement": "TGI", "setting": "MALME-3M melanoma", "result": 29.9, "unit": "µM"}, {"measurement": "TGI", "setting": "UACC-257 melanoma", "result": 27.4, "unit": "µM"}, {"measurement": "TGI", "setting": "CAKI-1 renal", "result": 31.1, "unit": "µM"}]}, {"smiles": "Cn1c(N(CCO)CCO)cnc1[N+](=O)[O-]", "values": [{"measurement": "TGI", "setting": "COLO 205 colon", "result": "> 100", "unit": "µM"}, {"measurement": "TGI", "setting": "HS 578T breast", "result": "> 100", "unit": "µM"}, {"measurement": "TGI", "setting": "SF-295 CNS", "result": "> 100", "unit": "µM"}, {"measurement": "TGI", "setting": "UO-31 renal", "result": "> 100", "unit": "µM"}, {"measurement": "TGI", "setting": "CCRF-CEM leukemia", "result": "> 100", "unit": "µM"}, {"measurement": "TGI", "setting": "HOP-92 NSCLC", "result": "> 100", "unit": "µM"}, {"measurement": "TGI", "setting": "SK-MEL-2 melanoma", "result": "> 100", "unit": "µM"}, {"measurement": "TGI", "setting": "MCF7 breast", "result": "> 100", "unit": "µM"}, {"measurement": "TGI", "setting": "SK-MEL-5 melanoma", "result": "> 100", "unit": "µM"}, {"measurement": "TGI", "setting": "ACHN renal", "result": "> 100", "unit": "µM"}, {"measurement": "TGI", "setting": "OVCAR-5 ovarian", "result": "> 100", "unit": "µM"}, {"measurement": "TGI", "setting": "PC-3 prostate", "result": "> 100", "unit": "µM"}, {"measurement": "TGI", "setting": "OVCAR-4 ovarian", "result": "> 100", "unit": "µM"}, {"measurement": "TGI", "setting": "K-562 leukemia", "result": "> 100", "unit": "µM"}, {"measurement": "TGI", "setting": "SNB-19 CNS", "result": "> 100", "unit": "µM"}, {"measurement": "TGI", "setting": "MDA-N", "result": "> 100", "unit": "µM"}, {"measurement": "TGI", "setting": "MALME-3M melanoma", "result": "> 100", "unit": "µM"}, {"measurement": "TGI", "setting": "UACC-257 melanoma", "result": "> 100", "unit": "µM"}, {"measurement": "TGI", "setting": "CAKI-1 renal", "result": "> 100", "unit": "µM"}]}]}
